Values of other authors as cited in patent US20230277510A1, “SIROLIMUS MICROSPHERES AND METHOD OF MAKING SIROLIMUS MICROSPHERES” (M.A. Med Alliance SA, priority 2022, published 2023).

Compound: CO[C@H]1C[C@@H]2CC[C@@H](C)[C@@](O)(O2)C(=O)C(=O)N2CCCC[C@H]2C(=O)O[C@H]([C@H](C)C[C@@H]2CC[C@@H](O)[C@H](OC)C2)CC(=O)[C@H](C)/C=C(\C)[C@@H](O)[C@@H](OC)C(=O)[C@H](C)C[C@H](C)/C=C/C=C/C=C/1C [SRL, sirolimus]
- octanol/water partition coefficient (log P): 4.3
